Experimental findings from ChEMBL document CHEMBL1201862, “PubChem BioAssay data set” (2004) are described below.

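Five concentrations, 48 hours, 96-well plates. GI50: concentration for 50% inhibition of growth.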 Calls of active or inactive are those of the source. Rule as the data show it: active = GI50 up to about 1.1 µM and inactive = higher.

Usually GI50 stands for the concentration that inhibits growth by half.

Common to all, as to assay: DTP human tumour cell line panel, 48 h
Test [1] concerns NCI-H226.
The subject of test [2] is RPMI-8226.
Test [3] relates to U-251.
Test [4] deals with IGROV-1.
In test [5] the test system is HT-29.
Test [6] concerns ACHN.
In test [7] the test system is SK-MEL-28.
The subject of test [8] is HCT-15.
Test [9] deals with LOX IMVI.
The test system of test [10] is OVCAR-3.
For test [11], the system named is HOP-62.
Test [12] relates to COLO 205.
Test [13] deals with K562.
In test [14] the test system is NCI-H23.
Test [15] deals with A549.
For test [16], the system named is SK-OV-3.
The test system of test [17] is SR.
Test [18] has as its system M14.

For the compound `CC(C)(C)C#C[P+](c1ccccc1)(c1ccccc1)c1ccccc1`, the GI50 in test [1] was 0.33 µM (active); in [2], 0.0377 µM (active); in test [3] it was 0.119 µM (active); in test [4] it was 0.578 µM (active); in [5], 0.292 µM (active); in test [6] it was 1.39 µM (inactive). Further, the GI50 in [7] is 0.0728 µM (active); in test [8] it was 0.655 µM; in [9] it was 0.328 µM (active); in [10] it was 0.351 µM (active); in test [11], 0.277 µM (active); in test [12], 0.17 µM (active). Also, the GI50 was 0.0498 µM (active) in test [13]; 0.353 µM (active) in [14]; 0.253 µM (active) in [15]; 0.655 µM (active) in [16]; 0.149 µM (active) in test [17]; 0.225 µM (active) in [18].

Regarding `Cc1nnc(N/N=C(/C(=O)C(C#N)c2ccccc2)C(C#N)c2ccccc2)n1N` (configuration not stated), the GI50 was 28.8 µM (inactive) in test [1]; 19.6 µM (inactive) in [2]; 32.6 µM (inactive) in [3]; > 58.9 µM (inactive) in test [4]; 6.4 µM (inactive) in test [5]; 22.3 µM (inactive) in [6]. In addition, the GI50 is 20 µM (inactive) in test [7]; 16.1 µM in test [8]; 1.54 µM (inactive) in test [9]; 20 µM (inactive) in test [10]; 50.7 µM (inactive) in test [11]; 4.76 µM (inactive) in test [12]. Moreover, the GI50 in test [13] was 3.73 µM (inactive); in [14], 12.9 µM (inactive); in [15] it was 20.2 µM (inactive); in [16] it was > 61.4 µM (inactive); in test [17], 32.3 µM (inactive); in [18], 16.8 µM (inactive).

In the case of `COc1ccc2nc3c(c(NCCCN(C)C)c2c1)CCCC3`, the GI50 in [1] was 16.3 µM (inactive); in test [2] it was 6.25 µM (inactive); in test [3], 15.5 µM (inactive); in test [4], 19.3 µM (inactive); in test [5], 5.41 µM (inactive); in test [6], 20.4 µM (inactive). For the same compound, the GI50 in test [7] was 16.9 µM (inactive); in [8], 16.3 µM; in test [9] it was 12.8 µM (inactive); in test [10], 19.4 µM (inactive); in [11], 16.4 µM (inactive); in [12] it was 10.8 µM (inactive). Besides, the GI50 was 2.25 µM (inactive) in test [13]; 17.1 µM (inactive) in test [14]; 21.4 µM (inactive) in test [15]; 20.5 µM (inactive) in test [16]; 2.42 µM (inactive) in test [17]; 13.3 µM (inactive) in test [18].

Consider `CCCCCCCCCCCCCCCC(=O)OCCOCCOCCOCCOCCOC(=O)CCCCCCCCCCCCCCC`, for which the GI50 in test [1], in test [2], in test [3], in test [4], in [5] and in test [6] was > 100 µM (inactive) in each case. The GI50 is > 100 µM (inactive) in test [7]; > 100 µM in test [8]; > 100 µM (inactive) in [9]; > 100 µM (inactive) in test [10]; > 100 µM (inactive) in test [11]; > 100 µM (inactive) in test [12]. Besides, the GI50 in test [13], in test [14], in test [15], in [16], in test [17] and in test [18] was > 100 µM (inactive) each time.
